Data reported in ChEMBL document CHEMBL3507680, “University of Dundee, Gates Library screen for HepG2 cell viability”.

Test: Human HepG2 cell viability assay in 384 well format
Assay type: toxicity, cell-based
Set-up: dose 125 nL, time 70.5 hour; concentration not given beside the values
Conditions: HepG2 cells, read-out: Inhibition

Structure (SMILES) | cytotoxicity at 70.5 h [%]
COCC(=O)Nc1ccc(C)cc1-c1nc(C2CC2)no1 | -7.26
CN(C)C1(CNC(=O)c2c(O)cc(Cl)cc2Cl)CCOCC1 | -9.63
Cc1ccc(NC(=O)N2CC[C@@H](O)C2)c(-c2nc(C3CC3)no2)c1 | -3.95
CCCS(=O)(=O)CCN1CCN(C(C#N)c2ccccc2)CC1 (stereo not given) | -8.86
CNS(=O)(=O)CCCN1CCN(C(C#N)c2ccccc2)CC1 (stereo not given) | -11.2
CNC(=O)c1cccc(CN2CCN(C3=NCC(C)(C)S3)CC2)c1 | -5.92
CC(C)c1cc(N2CCC(NS(C)(=O)=O)C2)nc(C(C)C)n1 (stereo not given) | -10.9
Cc1noc(NCc2cn(C)nc2-c2cccnc2)n1 | -12.1
CC(NC(=O)N(C)C1CC1)c1ccc(Oc2cccnc2)c(F)c1 (stereo not given) | -8.76
CC(C)S(=O)(=O)CCN1CCN(C(C#N)c2ccccc2)CC1 (stereo not given) | -7.44
Cc1ccc(C(=O)N(CC(=O)O)CC(C)C)cc1F | -7.92
CCN(Cc1ccncc1)C1CCN(c2ccccc2)C1=O (stereo not given) | 1.49
Cc1ccc(-c2nnn(CCN3C(=O)CCC3=O)n2)cc1 | -3.33
O=C1CCC(=O)N1CCn1nnc(-c2cccc(Cl)c2)n1 | 1.35
COc1ccc(C)cc1CN(C)CC(N)=O | -7.37
Cc1noc(C)c1C(=O)N1CCC(n2cccn2)CC1 | -3.66
CC(C)CCc1noc(C[S+]([O-])CC(=O)NCc2ccccc2)n1 (stereo not given) | -1.48
Cc1c(NC(=O)NCCO)cccc1OC1CCCC1 | -8.09
Cc1ccc(N(CCC#N)C(=O)CCc2cscn2)cc1C | -3.27
CCN(Cc1nccn1C)C1CCN(c2ccccc2)C1=O (stereo not given) | -2.87
Cc1c(NC(=O)NC(C)CCO)cccc1OC1CCCC1 (stereo not given) | -2.19
CC(C)c1ccccc1OCCNC(=O)N1CCC2(CC1)OCCO2 | -2.15
COc1c(C2CCCN2C(=O)c2ccc(C(N)=O)s2)c(C)nn1C (stereo not given) | -7.38
CC(C)Cc1nc(C[S+]([O-])CC(=O)NCc2ccccc2)no1 (stereo not given) | -5.17

Structure (SMILES) | cytotoxicity at 70.5 h [%]
COc1nc(C)ccc1CNC(=O)NC(c1ncc(C)s1)C1CC1 (stereo not given) | -2.73
NC(=O)COc1cccc(Cn2cccn2)c1 | -3.94
CN1CCC(Nc2ccc(F)cc2OCC(F)(F)F)C1=O (stereo not given) | -0.0891
CC(C(N)=O)N1CCN(c2ncc(Cl)cn2)CC1 (stereo not given) | -5.36
CC(C(=O)N1CCCC1)N1CCN(c2ncc(Cl)cn2)CC1 (stereo not given) | -3.08
CN1CCC(Nc2ccc(Cl)cc2OCC(F)(F)F)C1=O (stereo not given) | -3.11
CC(C(=O)N1CCCCC1)N1CCN(c2ncc(Cl)cn2)CC1 (stereo not given) | -0.389
CNC(=O)[C@@H](C)NC(=O)c1cc(-c2ccc(F)cc2)c(C)s1 | -3.7
CNC(=O)CNC(=O)NCc1cc2c(s1)CCC(C)(C)C2 | 2.16
COC(C(=O)NC1CCN(S(C)(=O)=O)CC1)c1ccccc1 (stereo not given) | 15.6
O=C(NCCN1CCOCC1)NCc1ccc(-n2cccn2)cc1 | 1.89
CCc1ncncc1C(=O)NCCNS(=O)(=O)c1ccccc1 | 13.9
Cc1nnc(NCC(c2ccco2)N(C)C)c(C#N)c1C (stereo not given) | -4.51
Cc1noc(C)c1C(=O)NCCN1CCN(S(C)(=O)=O)CC1 | -1.17
CCNC(=O)NC(=O)CNc1cc(C(=O)OC)cc(C(F)(F)F)c1 | -3.94
CC(Cc1c(F)cccc1F)NC(=O)CN(CC(N)=O)C(C)C (stereo not given) | -2.04
N#Cc1cnc(NC2CCN(C(=O)C3CC3)CC2)c(Cl)c1 | 0.703
CC(=O)N1CCN(c2nc3c(cnn3C(C)(C)C)c(=O)[nH]2)CC1 | -1.03
CNC(=O)NC(=O)CNc1cc(C(=O)OC)cc(C(F)(F)F)c1 | 1.77
CN1CCCN(c2nc3c(cnn3C(C)(C)C)c(=O)[nH]2)CC1 | 16.5
CC(C)(C)n1ncc2c(=O)[nH]c(N3CCN(CCO)CC3)nc21 | -1.33
CC(C)C(O)CNC(=O)Nc1cccc(-c2nccs2)c1 (stereo not given) | -3.11
COc1ccc(CNC(Cn2cncn2)c2ccccc2)cc1O (stereo not given) | -0.077
N#Cc1ccc(F)c(CN(CC(=O)N2CCCC2)CC2CCCO2)c1 (stereo not given) | 0.0703

Structure (SMILES) | cytotoxicity at 70.5 h [%]
N#Cc1c(Cl)nsc1NCc1ccc(N2CCCC(C(N)=O)C2)cc1 (stereo not given) | -2.18
Cc1cn2c(CN(C)C(=O)c3nccnc3N)c(C)nc2s1 | 0.596
COc1ccccc1CNC(Cn1cncn1)c1ccccc1 (stereo not given) | -2.53
Cc1ccoc1C(=O)N1CCOC2(CCCC2)C1 | -2.84
COc1cc(C(C)NCc2cscn2)ccc1SC(F)F (stereo not given) | 30.9
CCC1CCCCN1CCc1ccncc1 (stereo not given) | 29.9
CCC(=O)NCc1ccccc1Cn1ccnc1 | -2.6
NC(=O)C1CCN(C(=O)NCc2ccccc2Cn2ccnc2)CC1 | -6.43
O=C(NCc1ccccc1Cn1ccnc1)N1CCSCC1 | -6.06
COc1cc(C(C)=O)ccc1OCC(=O)N(Cc1ccsc1)C1CC1 | -12
COCCN1CCC(NC(=O)Nc2cccc(F)c2)C1 (stereo not given) | -0.696
O=C(NCCc1ccn(-c2ccc(F)cc2)n1)C1CCCOC1 (stereo not given) | -1.01
Cc1cc(Nc2ccc3c(c2)CC(=O)N3)nc(C(C)C)n1 | -6.82
Cc1cc(Nc2ccc3c(c2)CC(=O)N3)nc(C2CC2)n1 | -9.05
CC1CN(C(=O)NCc2ccn(C)c2)CCN1CC(F)(F)F (stereo not given) | 32.3
COc1ccc(OC)c(CCNC(=O)CCC2CCCO2)c1 (stereo not given) | -10
COCCN1CCC(NC(=O)NCC2(c3ccccc3)CC2)C1 (stereo not given) | -9.2
COc1cc(C(C)=O)ccc1OCC(=O)N(CC(C)C#N)C1CC1 (stereo not given) | -7.18
Cc1cc(C2CCCN(Cc3ncc(C)o3)C2)n[nH]1 (stereo not given) | -10.2
c1cc(CCN2CCCC2CN2CCCCC2)ccn1 (stereo not given) | 25.4
CCc1ncc(C(=O)N2CCOCC2CC(=O)c2ccccc2)s1 (stereo not given) | -5.53
O=C(c1cnc(NCC2CCCO2)c(Cl)c1)N1CCOCC1 (stereo not given) | -9.69
Cc1cnn(CCNCc2cc(-c3ccccc3)no2)c1 | 7.59
CC(C1CC1)N(C)Cc1nnc(-c2ccco2)o1 (stereo not given) | 1.08

Structure (SMILES) | cytotoxicity at 70.5 h [%]
CSc1ccc(C(C)NC(=O)c2cc(C)on2)cc1 (stereo not given) | -4.63
Cc1cc(C(=O)NC2CCN(c3ncccc3C#N)CC2)on1 | -6.25
CCC1CN(C(=O)Cc2coc(-c3ccccc3)n2)CCO1 (stereo not given) | -3.32
Cc1nc2cc(=O)[nH]n2c(C)c1CC(=O)Nc1cnn(C)c1 | 0.718
CC(C)CN(Cc1nnc(-c2ccco2)o1)CC(C)C | 2.87
CCOC(=O)c1nnc2ccccc2c1N1CCN(CC)CC1 | -7.65
Cc1cn2c(n1)CCC(NS(=O)(=O)c1sc(C)nc1C)C2 (stereo not given) | 3.5
CC1CCC(O)(Cn2ncnc2-c2cccc(C#N)c2)CC1 (stereo not given) | -5.94
CC1CCCN(Cc2ccc(CNC(=O)NCc3ccon3)cc2)C1 (stereo not given) | 2.37
COc1cccc(CN2CCCC2c2ccc[nH]2)c1 (stereo not given) | 0.927
CN(Cc1ccsc1)C(=O)Cn1c(CS(C)(=O)=O)nc2ccccc21 | -1.3
COCCN1CCCN(C(=O)c2scnc2C)CC1 | -3.53
Cc1ccc(C(=O)N(C)Cc2csc(C)n2)c(=O)[nH]1 | 1.68
Cc1ccc(C(=O)N(C)Cc2ccc(Br)o2)c(=O)[nH]1 | -2.83
CC(C)N(C)CC(=O)NCC(Cc1ccc(F)cc1)C(N)=O (stereo not given) | 1.22
CCC(CC)C(=O)NCCC(=O)N1CCN(c2ccccn2)CC1 | 2.35
NC(=O)C(CNC(=O)CCc1ccsc1)Cc1ccc(F)cc1 (stereo not given) | 21
Cc1ccc(C(=O)N(C)Cc2csc(Br)c2)c(=O)[nH]1 | 1.57
CCn1cnnc1C1CCN(C(=O)c2cnn(C(C)(C)C)c2)CC1 | -5.89
CSC(C)C(=O)NCCC(=O)N1CCN(c2ccccn2)CC1 (stereo not given) | -3.28
Cc1ccc(CC(=O)NCC(Cc2ccc(F)cc2)C(N)=O)cn1 (stereo not given) | -0.982
CC(C)c1cc(C(=O)N2CCOCC2CC(=O)c2ccco2)nn1C (stereo not given) | -0.209
Cc1ccc(NCCNC(=O)c2cc(CC(C)C)n[nH]2)nn1 | 4.32
CCN1CCN(C(=O)c2scnc2C)CC1 | 18.9

Structure (SMILES) | cytotoxicity at 70.5 h [%]
Cc1ncsc1C(=O)N1CCN(CCC(C)C)CC1 | -6.29
COCCOCC(=O)Nc1ccccc1F | -6.23
COCCCN(CCOC)C(=O)Nc1ccc(Br)cc1 | -7.21
CN(CCS(C)(=O)=O)C1CCCN(Cc2noc(C3CC3)n2)C1 (stereo not given) | 17.9
Cc1cccc(NC(=O)c2sc(C)nc2C)n1 | -11.8
CCc1noc(C(C)N2CCN(CC(=O)N3CCOCC3)CC2)n1 (stereo not given) | -4.7
Cc1ccc(CNC2CCc3nc(C(C)C)nn3C2)o1 (stereo not given) | -4.86
CCn1cnnc1C1CCN(C(=O)c2ccnc(N(C)C)c2)CC1 | -8.14
O=C(CN1CCCC1Cn1cncn1)Nc1nncs1 (stereo not given) | 14.3
Cc1nc(C)n(CC2CCCN2CC(=O)Nc2cccnc2)n1 (stereo not given) | -0.954
O=C(CN1CCCC(Cn2cncn2)C1)Nc1cccnc1 (stereo not given) | 0.545
Cc1ccc(NC(=O)CNc2ccccc2C(N)=O)c(C)c1 | 2.06
CCOc1ncccc1NC(=O)c1ccc(C(C)=O)s1 | -14.4
CCOc1ncccc1NC(=O)c1cccs1 | -10.3
CC(C)NC(=O)c1nnn(-c2ccc(F)cc2)c1C1CC1 | -4.05
Cc1c(C(=O)NC(C)C)nnn1-c1cccc(C(F)(F)F)c1 | -4.53
CNC(=O)COc1ccc(CNCc2cc(F)ccc2F)cc1 | -2.81
CC(C)CN1CCC(NC(=O)c2ccc(F)cc2F)CC1 | 0.0411
CN(Cc1cnn(C)c1)C(=O)NCC1CCS(=O)(=O)C1 (stereo not given) | -4.43
CCc1nnc2n1CCN(C(=O)c1ccc3cc[nH]c3c1)C2 | -4.35
N#CCCCOc1cccnc1NC(=O)CC1CCCCC1 | 39.8
CC(=O)NCCNC(=O)c1cccc(Cn2nc(C)cc2C)c1 | -1.57
Cc1nc(-c2ccsc2)ccc1C(=O)N(C)CC(F)(F)F | -11.2
N#CCCCOc1cccnc1NC(=O)Cc1ccccc1F | 0.586
